Entries after “also recorded” stand apart in the source; their conditions may differ.
Key:
[1] = tested on: purified enzyme MTA (aminotransferase); experiment: Specificity for amino acceptor, (S)-α-phenethylamine as donor (Examples 5 and 6); format: biochemical, Pseudomonas fluorescens KNK08-18; conditions: for Activity as amino acceptor (in words): donor (S)-α-phenethylamine
Description: The purified enzyme obtained in Example 1 was analyzed in terms of substrate specificity regarding amino acceptors. In 20 μL of the purified Enzyme, 380 μL of a 0.1M potassium phosphate buffer containing 14 mM of (S)-α-phenethylamine and 14 mM of a ketone compound of various type was added. After the mixture was reacted at 30° C. for 1 hour, 20 μL of 3N hydrochloric acid was added therein to stop the reaction. Results of the analysis are shown in Table 3, in which the relative activities are shown where the activity with pyruvic acid as the amino acceptor is 100.
(§1) [Analysis Conditions of High-Performance Liquid Chromatography]
(§2) • Column: Cosmosil 5C8-MS (Nacalai Tesque Inc.) • Carrier: 30 mM potassium phosphate buffer (pH 2.5)/acetonitrile/methanol=4/1/1 (by volume) • Flow Rate: 0.9 mL/min • Detection: 254 nm
The purified enzyme obtained in Example 1 was analyzed in terms of substrate specificity regarding amino acceptors in the same manner as in Example 5.

MTA (present invention) = experiment: Substrate specificity, comparison with ω-amino acid transaminase (Example 7), Enzyme A; format: biochemical, Pseudomonas fluorescens KNK08-18; conditions: for Reactivity as amino donor (in words): Enzyme A (MTA), receptor pyruvic acid or 2-ketoglutaric acid; for Relative activity, Enzyme A: donor 14 mM, activity with (S)-α-phenethylamine is 100
Description: The purified enzyme obtained in Example 1 was analyzed in terms of its reactivity to typical substrates of ω-amino acid transaminase. Firstly, 20 μL of a purified enzyme solution having a protein concentration of 0.2 mg/mL was added to 380 μL of a substrate solution having the following composition. After carrying out reaction at 30° C. for 1 hour therein, 20 μL of 3N hydrochloric acid was added therein to stop the reaction. Then, into 20 μL of the resultant reaction mixture, a 0.2M sodium carbonate aqueous solution of 80 μL and an acetone solution of 200 μL containing dabsyl chloride by 3.3 mg/mL were added. Then, the resultant mixture was reacted at 70° C. for 10 min. After 20 μL of acetic acid was added therein with stirring. The reaction mixture thus obtained was analyzed by high-performance liquid chromatography thereby to quantitatively analyze dabsylated alanine or […]. Results of the analysis are shown in Table 5, in which the relative activities are shown where the activity with (S)-α-phenethylamine as the amino donor is 100. In Table 5, the values of activities of ω-amino acid:pyruvic acid transaminase and 4-amino butyric acid: 2-ketoglutaric acid transaminase are from the literatures “Agric. Biol. Chem. 41, 1701-1706 (1977), Arch. Biochem. Biophys. 200, 156-164 (1980)”.
(§3) [Substrate Solution Composition]
Pyruvic acid or 2-ketoglutaric acid 14 mM
(§4) Pyridoxal phosphate 0.02 mM
(§5) Potassium Phosphate Buffer (pH 7.5) 0.1M
(§6) [High-Performance Liquid Chromatography Analysis Conditions]
(§7) Column: Deverosil ODS-HG-3 (Nomura Chemical Co., Ltd.)
(§8) Carrier: Acetonitrile/0.045M acetate buffer (pH 4.1)=35/65 (by volume)

[2] = tested on: purified enzyme MTA (aminotransferase); experiment: Specificity for amino donor, 7-methoxy-2-tetralone as amino acceptor (Example 3); format: biochemical, Pseudomonas fluorescens KNK08-18; conditions: for Relative Activity (%): amino donor varied, 14 mM (racemic 28 mM), acceptor 14 mM 7-methoxy-2-tetralone, 30° C., 1 hour, activity with (S)-α-phenethylamine is 100
Description: In 20 μL of the purified Enzyme, 380 μL of a 0.1M potassium phosphate buffer containing 14 mM of 7-methoxy-2-tetralone and 14 mM (in case of the racemic amine compound, 28 mM)) of an amine compound of various type was added. After the mixture was reacted at 30° C. for 1 hour, 20 μL of 3N hydrochloric acid was added therein to stop the reaction. The reaction solution thus obtained was analyzed via high-performance liquid chromatography so as to quantitatively analyze 7-methoxy-2-aminotetralin thus obtained. Thereby, the amino group transfer activities with the various amino compounds were analyzed.
as §1, §2

[3] = tested on: purified enzyme MTA (aminotransferase); experiment: Specificity for amino donor, pyruvic acid as acceptor, dabsylated alanine quantified (Example 4); format: biochemical, Pseudomonas fluorescens KNK08-18; conditions: for Amino group transfer activity as amino donor (in words): acceptor pyruvic acid; for Relative Activity (%): amino donor varied, 14 mM, acceptor 14 mM pyruvic acid, pH 7.5, 30° C., 1 hour, activity with (S)-α-phenethylamine is 100
Description: The amino group transfer activity measurement is carried out as follows: Firstly, 20 μL of a purified enzyme solution having a protein concentration of 0.2 mg/mL is added to 380 μL of a substrate solution having the following composition. After carrying out reaction at 30° C. for 1 hour therein, 20 μL of 3N hydrochloric acid is added therein to stop the reaction. Then, into 20 μL of the resultant reaction mixture, a 0.2M sodium carbonate aqueous solution of 80 μL and an acetone solution of 200 μL containing dabsyl chloride by 3.3 mg/mL are added. Then, the resultant mixture is reacted at 70° C. for 10 min. After 20 μL of acetic acid is added therein with stirring. The reaction mixture thus obtained is analyzed by high-performance liquid chromatography thereby to quantitatively analyze dabsylated alanine.
The purified enzyme obtained in Example 1 was analyzed in terms of its reactivity to typical substrates of ω-amino acid transaminase. Firstly, 20 μL of a purified enzyme solution having a protein concentration of 0.2 mg/mL was added to […] of a substrate solution having the following composition. After carrying out reaction at 30° C. for 1 hour therein, 20 μL of 3N hydrochloric acid was added therein to stop the reaction. Then, into 20 μL of the resultant reaction mixture, a 0.2M sodium carbonate aqueous solution of 80 μL and an acetone solution of 200 μL containing dabsyl chloride by 3.3 mg/mL were added. Then, the resultant mixture was reacted at 70° C. for 10 min. After 20 μL of acetic acid was added therein with stirring. The reaction mixture thus obtained was analyzed by high-performance liquid chromatography thereby to quantitatively analyze dabsylated alanine. Results of the analysis are shown in Table 2, which the amino group transfer activities are shown as relative activities where the activity with (S)-α-phenethylamine as the amino donor is 100.
as §3, §4, §5, §6, §7, §8

[4] = tested on: 4-Aminobutylic Acid: 2-Ketoglutaric Acid Transaminase; conditions: amino group receptor 2-ketoglutaric acid; values from the literature; cited from earlier work
[5] = biological target: T1, ω-Amino Acid: Pyruvic Acid Transaminase (Pseudomonas putida, UniProt P28269); conditions: amino group receptor pyruvic acid; values from the literature; cited from earlier work
T1 sequence (P28269 1-449): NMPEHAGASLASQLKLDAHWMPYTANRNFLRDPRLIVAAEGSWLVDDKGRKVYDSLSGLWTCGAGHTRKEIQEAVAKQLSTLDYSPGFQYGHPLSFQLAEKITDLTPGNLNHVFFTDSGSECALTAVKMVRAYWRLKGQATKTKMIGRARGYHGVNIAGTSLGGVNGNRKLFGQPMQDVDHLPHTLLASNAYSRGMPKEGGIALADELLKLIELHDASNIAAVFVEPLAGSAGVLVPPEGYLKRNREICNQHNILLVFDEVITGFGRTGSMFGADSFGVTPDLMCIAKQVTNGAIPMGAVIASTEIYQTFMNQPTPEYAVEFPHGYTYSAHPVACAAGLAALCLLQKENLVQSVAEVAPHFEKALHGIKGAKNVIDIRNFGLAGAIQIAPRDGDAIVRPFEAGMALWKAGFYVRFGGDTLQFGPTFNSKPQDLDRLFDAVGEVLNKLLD

[6] = Table 4: amino acceptor varied, same manner as in Example 5, donor (S)-α-phenethylamine
[7] = amino group receptor pyruvic acid 14 mM
[8] = Table 3: amino acceptor varied, 14 mM, donor 14 mM (S)-α-phenethylamine, 30° C., 1 hour, activity with pyruvic acid is 100
[9] = amino group receptor 2-ketoglutaric acid 14 mM

COc1ccc2c(c1)CC(=O)CC2 [7-Methoxy-2-Tetralone]
Relative Activity (%) [1, 6]: 10%

C[C@H](N)c1ccccc1 [(S)-α-phenethylamine, reference compound]
Reactivity as amino donor (in words) (MTA (present invention)): highly active
Relative activity, Enzyme A (MTA (present invention); [7]): 100
Amino group transfer activity as amino donor (in words) ([2]; acceptor 7-methoxy-2-tetralone): especially high activity
Relative Activity (%) [2]: 100%
Amino group transfer activity as amino donor (in words) [3]: active
Relative Activity (%) [3]: 100%

CC(C)N [isopropylamine]
Relative Activity (%) [2]: 10%

CCCN [n-propylamine]
Relative Activity (%) [2]: 6%

CC(=O)c1cccc(O)c1 [3′-Hydroxyacetophenone]
Relative Activity (%) [1, 6]: 3%

NCCCCC(N)C(=O)O (racemic) [DL-lysine]
Relative Activity (%) [2]: 0%
Amino group transfer activity as amino donor (in words) [3]: no activity; also recorded: substantially inactive
Relative Activity (%) [3]: 0%

O=C1CCc2ccccc2C1 [2-Tetralone]
Relative Activity (%) [1, 6]: 17%

CC(C)CN [isobutylamine]
Relative Activity (%) [2]: 8%

CCC=O [Propionaldehyde]
Relative Activity (%) [1, 8]: 5%

CCCCCC(C)=O [2-Heptane]
Relative Activity (%) [1, 6]: 7%

CCC(C)N (racemic) [±2-butylamine]
Relative Activity (%) [2]: 48%

NCc1ccccc1 [benzylamine]
Relative Activity (%) [2]: 35%

CC(=O)c1ccc(Cl)cc1 [4′-Chloroacetophenone]
Relative Activity (%) [1, 6]: 30%

CC(=O)CCc1ccccc1 [Benzylacetone]
Relative Activity (%) [1, 6]: 33%

CCCCN [n-butylamine]
Relative Activity (%) [2]: 7%

COc1cccc(C(C)=O)c1 [3′-Methoxyacetophenone]
Relative Activity (%) [1, 6]: 10%

NCCCC(=O)O [4-Aminobutyric Acid]
Reactivity as amino donor (in words) (MTA (present invention)): not reactive
Relative activity, Enzyme A (MTA (present invention); [9]): 0
Relative activity, Enzyme C [4]: 100

CC(=O)c1cnccn1 [Acetylpyrazine]
Relative Activity (%) [1, 6]: 100%

CCCCCC(C)N (racemic) [±2-heptylamine]
Relative Activity (%) [2]: 93%

CCCC=O [Butylaldehyde]
Relative Activity (%) [1, 8]: 18%

NCCC(=O)O [β-alanine]
Relative activity, Enzyme B [5]: 100
Reactivity as amino donor (in words) (MTA (present invention)): not reactive
Relative activity, Enzyme A (MTA (present invention); [9]): 0
Relative activity, Enzyme A (MTA (present invention); [7]): 0
Relative Activity (%) [2]: 0%
Relative activity, Enzyme C [4]: 0
Amino group transfer activity as amino donor (in words) [3]: substantially inactive
Amino group transfer activity as amino donor (in words) ([3]; listed as Valanine): no activity
Relative Activity (%) [3]: 0%

NC1CCCCC1 [cyclohexylamine]
Relative Activity (%) [2]: 22%

CC(=O)C(=O)O [Pyruvic Acid, reference compound]
Relative Activity (%) [1, 8]: 100%
Activity as amino acceptor (in words) [1]: high activity; also recorded: active

O=C(O)CCC(=O)C(=O)O [2-Ketoglutaric Acid]
Relative Activity (%) [1, 8]: 0%
Activity as amino acceptor (in words) [1]: no activity

CCCC(C)N (racemic) [±2-pentylamine]
Relative Activity (%) [2]: 60%

COCC(C)=O [Methoxypropanone]
Relative Activity (%) [1, 6]: 13%

NCCc1ccccc1 [β-phenethylamine]
Relative Activity (%) [2]: 22%

C[C@H](N)C(=O)O [L-alanine]
Relative Activity (%) [2]: 20%

O=CC(=O)O [Glyoxylic Acid]
Relative Activity (%) [1, 8]: 99%
Activity as amino acceptor (in words) [1]: high activity; also recorded: active

O=Cc1ccccc1 [Benzaldehyde]
Relative Activity (%) [1, 8]: 2%

NCCS(=O)(=O)O [Taurine]
Relative activity, Enzyme B [5]: 132
Reactivity as amino donor (in words) (MTA (present invention)): not reactive
Relative activity, Enzyme A (MTA (present invention); [9]): 0
Relative activity, Enzyme A (MTA (present invention); [7]): 0
Relative activity, Enzyme C [4]: 8
Amino group transfer activity as amino donor (in words) [3]: no activity; also recorded: substantially inactive
Relative Activity (%) [3]: 0%

NCCCCN [Putrescine]
Relative activity, Enzyme B [5]: 18
Reactivity as amino donor (in words) (MTA (present invention)): not reactive
Relative activity, Enzyme A (MTA (present invention); [7]): 0
Amino group transfer activity as amino donor (in words) [3]: no activity; also recorded: substantially inactive
Relative Activity (%) [3]: 0%

COc1ccc(CC(C)N)cc1OC (racemic) [±3′,4′-dimethoxyamphetamine]
Relative Activity (%) [2]: 88%

CC(=O)c1cccnc1 [3-Acetylpyridine]
Relative Activity (%) [1, 6]: 10%

CCCCC(N)CC (racemic) [±3-heptylamine]
Relative Activity (%) [2]: 19%

CC(=O)c1cccc(C(F)(F)F)c1 [3′-Trifluoromethylacetophenone]
Relative Activity (%) [1, 6]: 40%

CCN [n-ethylamine]
Relative Activity (%) [2]: 6%

CCC(=O)C(=O)O [2-Ketobutyric Acid]
Relative Activity (%) [1, 8]: 2%

CC(N)CCc1ccccc1 (racemic) [±3-amino-1-phenylbutane]
Relative Activity (%) [2]: 90%

CCCC(=O)C(=O)O [2-Keto-n-Valeric Acid]
Relative Activity (%) [1, 8]: 0.1%

O=C1CCN(Cc2ccccc2)C1 [1-Benzyl-3-Pyrrolidinone]
Relative Activity (%) [1, 6]: 20%

CCCCCN [n-amylamine]
Relative Activity (%) [2]: 11%

From patent US8431378B2, “Aminotransferase, gene encoding the same, and methods of using them” (Kaneka Corporation, priority 2005, dated 2013)
